Experimental data reported in US11285220B2, “Materials and methods relating to linkers for use in protein drug conjugates” (Iksuda Therapeutics Limited, priority 2014, dated 2022).

Assay: Reactivity of PL13 free acid with aspartic acid
Details: 10 equivalents Asp, pH 7.0, 18 hours, RT
Method: PL13 free acid was treated with 10 equivalents of aspartic acid (Asp) at pH 7.0 and at RT. Analysis was performed by RP-HPLC at gradient of 1% to 50% B over 15 minutes with detection at 254 nm.
50 μL of 2.61 mM PL13 free acid in methanol was mixed with […] of […] in buffer to give a final concentration of 0.42 mM PL13 free acid and 4.2 mM Asp.

Structure (SMILES): C=Cc1cc(C)nc(CCC(=O)O)c1 [PL13 free acid]
- stability in the presence of Asp: stable
